Columns and labels:
passaged astrocytes = test: Highly enriched passaged astrocyte cultures, immunostaining; type: cell-based, rat; conditions: astrocytes passaged 3 times; untreated controls at a significantly reduced level
Experimental: The method of the invention is also exemplified by a third embodiment in which astrocytes are passaged 3 times prior to in vitro treatment with the compound and samples derived from the whole cortex were compared to samples enriched for tissue from the subventricular zone.
For some experiments, freshly dissociated cortical cells were plated in poly lysine coated T-75 flasks. Cells were fed twice weekly with DMEM+10% FBS. After reaching confluence, cells were removed from the T-75 flask with typsin/EDTA (Gibco), pelleted and media removed. The cell pellet was resuspended in DMEM+10% FBS and split 1 to 5 into new T-75 flasks. This process was repeated 2 more times. After reaching confluence on the fourth passage, cells were removed from the T-75 flask as describe above and plated on poly lysine coated 24 well cluster plates at a density of 1×10^5 cells per well. Cells were maintained in DMEM+10% FB S until they reached confluence at which point, the media was removed and replaced with NeuralBasal+B27 supplementsN-[4-[(4-fluorophenyl)sulfonyl]phenyl]acetamide was dissolved in 2 hydroxypropyl-β-cyclodextrin and added to cultures at final concentrations ranging from 100 μg/ml to 10 ng/ml. […]

[1] = tested on: mixed embryonic day 18 (E18) rat neural cultures; test: Embryonic day 18 rat cortical culture, glutamate-killed neurons, immunostaining for neuronal markers; type: cell-based
From the text: The method of the invention is exemplified by a first embodiment wherein administration of a single in vitro dose of N-[4-[(4-fluorophenyl)sulfonyl]phenyl]-acetamide, a compound according to Formula (II), to a population of mixed embryonic day 18 (“E18”) rat neural cultures without living neurons results in a protein expression pattern within the culture that is indicative of development of neuronal cells from progenitor cells. The embryonic neural cultures are first subjected to glutamate excitotoxic exposure sufficient to result in neuronal cell death prior to administration of the compound. Cultures obtained from E18 rat embryos are allowed to mature in vitro for 10 days at which time they are treated with […] glutamate to kill the neurons. Eight days later, cultures are treated with a range of doses of the compound N-[4-[(4-fluorophenyl)sulfonyl]phenyl]acetamide from 0.01 μg/ml to 100 μg/ml. In comparing control cultures and drug treated cultures, an antigenic marker for neuronal progenitor cells, e-NCAM (as detected by immunohistochemical methods), is elevated one week after treatment of the culture with N-[4-[(4-fluorophenyl)sulfonyl]phenyl]-acetamide. […] In contrast, few cells in untreated cultures are observed expressing MAP-II immunoreactivity at 3 weeks post-treatment. […] In control cultures, few cells are observed expressing intense MAP-II and beta-tubulin immunoreactivity. […] This expression pattern represents the normal sequence of events as neuronal cells develop from progenitor cells.
CNS tissue was harvested from embryonic day 18 (E-18) rat pups (Taconic Labs) using sterile technique and was stored in ice cold Hank's Balanced Salt Solution (HBSS-Gibco). Brains were removed from the cranium of 10 embryos, and the meninges removed to expose the underlying cortex. Cortex was isolated from the rest of the brain and stored in ice cold HBSS. After all material was collected, the tissue was minced and trypsinized using 0.1% trypsin (Sigma) for 30 minutes at 37° C. Trypsin action was inhibited by adding 0.5 mg/ml soybean trypsin inhibitor (Gibco). Tissue was rinsed with HBSS and triturated using a flame narrowed Pasteur pipette coated with fetal bovine serum (FBS—Media Tech).
Dissociated cells were counted and plated into 24 well cluster plates in DMEM (MediaTech) plus 10% FBS (Media Tech) at a density of 5×10^5 cells per well. Twenty-four well cluster plates were coated with poly-D-lysine prior to adding cells. Cultures were maintained for 10 days in vitro using a 3-4 day feeding schedule where half the media was removed and replaced with fresh media.
On in vitro day (IVD) 10, glutamate (Gibco) (110 μl of 20 mM added to wells that contained 1 ml of media) was add to all wells except control wells to a final concentration 2 mM. Control wells were fed an equal amount of media minus the L-glutamate. Cultures were maintained for an additional 9 days using a 3-4 feeding schedule. On IVD-18, media was removed and replaced with Neurobasal (Gibco)+B27 supplements (Gibco) and L-glutamine (Media Tech). The next day, IVD-19, N-[4-[(4-fluorophenyl)sulfonyl]phenyl]acetamide dissolved in 2-hydroxypropyl-β-cyclodextrin (Sigma) was added to cultures such that the final concentrations of the compound were either 100 μg/ml, 10 μg/ml, 1 μg/ml and 0.1 μg/ml or 10 μg/ml, 1 μg/ml 0.1 μg/ml and 0.01 μg/ml. Two sets of control wells were included in each experiment. One set of glutamate treated wells received an equal dose of 2-hydroxypropyl-β-cyclodextrin but without N-[4-[(4-fluorophenyl)sulfonyl]phenyl]acetamide. […] After it became apparent that the optimal dose was approximately 0.1 μg/ml to 1 μg/ml N-[4-[(4-fluorophenyl)sulfonyl]phenyl]acetamide, the concentration of drug added to the control wells was reduced to 1 μg/ml.
Cultures were maintained for up to an additional 10 weeks. […]

[2] = tested on: spinal cord of an injured recipient animal; test: Bone marrow cell implantation at spinal cord injury site with BrdU labelling; type: in vivo, rat; conditions: 12 weeks after implantation of bone marrow cells from orally treated donor
Experimental: In preferred embodiments, the invention relates to regenerating nerve tissue in vivo. Methods of the invention include administering a therapeutically effective dose of a composition of the invention to a first mammal in need of neural regeneration. In some embodiments, a compound of Formula (I) or Formula (II) is administered, preferably orally administered, to a mammal in need of tissue regeneration, preferably neural tissue regeneration. In some embodiments, methods of the invention comprise administering a compound of Formula (I) or Formula (II) to a first mammal, harvesting cells from the first mammal after administration of the compound and subsequently delivering the harvested cells locally at a site where increased neural expression or increased neural regeneration is needed, wherein the injury site can be in the first mammal or in a second mammal. In some embodiments, the compositions of the invention can be administered intralesionally. Preferably, the harvested cells are from any type of stem cell, for example bone marrow cells. For example, bone marrow cells can be collected from a donor animal (e.g., a rat) within two weeks, preferably within three to seven days, after oral administration of N-[4-[(4-fluorophenyl)sulfonyl]phenyl]acetamide in a pharmaceutically acceptable carrier to the donor animal. […]

[3] = 4 weeks post treatment, vs control cultures

SMILES: CC(=O)Nc1ccc(S(=O)(=O)c2ccc(F)cc2)cc1 [N-[4-[(4-fluorophenyl)sulfonyl]phenyl]acetamide]
- beta-tubulin positive cells with neuronal morphologies (passaged astrocytes): show beta-tubulin positive cells with neuronal morphologies
- MAP-II expression ([1]; 3 weeks post treatment, vs untreated cultures): Low levels of MAP-II expression are also detected at 3 weeks post treatment in a large number of cells
- MAP-II immunoreactivity [1, 3]: a large number of cells treated with the compound can be observed expressing intense MAP-II and beta-tubulin immunoreactivity
- beta-tubulin immunoreactivity [1, 3]: a large number of cells treated with the compound can be observed expressing intense MAP-II and beta-tubulin immunoreactivity
- phosphorylated neurofilament protein (NF-PO4) immunoreactivity ([1]; 6 weeks post treatment, vs untreated cultures): can be observed in numerous neurites
- e-NCAM expression (immunohistochemical) ([1]; one week after treatment, drug treated vs control cultures, 0.01 μg/ml to 100 μg/ml): elevated
- expression of Low affinity Neuron Growth Factor Receptor ([1]; ten weeks post treatment): show expression of the Low affinity Neuron Growth Factor Receptor
- beta-tubulin expression ([1]; three weeks post treatment, vs untreated control cultures): elevated levels of beta-tubulin expression are detected in large numbers of cells
- BrdU incorporation and expression of nestin, beta-tubulin and GFAP in spinal cord tissue [2]: shows incorporation of BrdU in cell nuclei, as well as expression of nestin, beta-tubulin and GFAP

— patent US7271187B2, “Compositions and methods for promoting tissue regeneration” (priority 2000, dated 2007)
